Data as given in US9290461B2, “Crystalline modifications of prothioconazole” (ADAMA MAKHTESHIM LTD, priority 2008, dated 2016).

Legend:
[1] = Solubility in water, Shake Flask Method (OECD Guideline 105); type: physicochemical; conditions: 20° C., buffered at pH 7, Shake Flask Method (OECD Guideline 105)
Method: The following solubilities were measured in water, 20° C., buffered at pH 7, using the Shake Flask Method (OECD Guideline 105): […]

[2] = at room temperature; cited from earlier work

Row | Compound | solubility in water [1] | thermodynamic stability of the crystalline form [2]
1 | OC(Cc1ccccc1Cl)(Cn1nc[nH]c1=S)C1(Cl)CC1 (stereo not drawn) [Amorphous, prothioconazole] | 34 ppm | 
2 | OC(Cc1ccccc1Cl)(Cn1nc[nH]c1=S)C1(Cl)CC1 (racemic) [Form II, 2-[(2RS)-2-(1-chlorocyclopropyl)-3-(2-chlorophenyl)-2-hydroxypropyl]-2H-1,2,4-triazole-3(4H)-thione] | 15 ppm | thermodynamically stable at room temperature
3 | OC(Cc1ccccc1Cl)(Cn1nc[nH]c1=S)C1(Cl)CC1 (stereo not drawn) [DMSO Solvate, prothioconazole] | 30 ppm | 
4 | OC(Cc1ccccc1Cl)(Cn1nc[nH]c1=S)C1(Cl)CC1 (racemic) [Form I, 2-[(2RS)-2-(1-chlorocyclopropyl)-3-(2-chlorophenyl)-2-hydroxypropyl]-2H-1,2,4-triazole-3(4H)-thione] | 28 ppm | metastable at room temperature
